Consider eight compounds from patent US10670605B2, “Cysteine reactive probes and uses thereof” (The Scripps Research Institute, priority 2015, dated 2020).

Common to all, as to test: Competitive isoTOP-ABPP in situ (fragment-treated cells)
Common to all, as to format: cell-based

Assay [1] deals with cysteines in MDA-MB-231 and Ramos cells (Homo sapiens, UniProt Q02252).
Assay [2] concerns the target T1, cysteines in MDA-MB-231 and Ramos cells (Homo sapiens, UniProt P52597).
T1 sequence (P52597 1-415): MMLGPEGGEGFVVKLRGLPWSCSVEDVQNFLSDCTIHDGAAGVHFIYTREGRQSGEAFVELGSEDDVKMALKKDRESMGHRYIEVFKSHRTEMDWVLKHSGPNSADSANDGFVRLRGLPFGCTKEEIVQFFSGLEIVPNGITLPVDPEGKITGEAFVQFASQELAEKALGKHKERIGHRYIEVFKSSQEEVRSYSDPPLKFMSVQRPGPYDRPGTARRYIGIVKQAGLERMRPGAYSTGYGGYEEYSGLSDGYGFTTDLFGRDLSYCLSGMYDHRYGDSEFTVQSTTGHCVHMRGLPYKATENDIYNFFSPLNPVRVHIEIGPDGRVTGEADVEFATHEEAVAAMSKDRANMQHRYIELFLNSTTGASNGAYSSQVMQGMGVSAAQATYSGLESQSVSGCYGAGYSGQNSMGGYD

In assay [3] the target is cysteines in MDA-MB-231 and Ramos cells (Homo sapiens, UniProt Q9ULV4).
Assay [4] addresses T2, cysteines in MDA-MB-231 and Ramos cells (Homo sapiens, UniProt O75521).
T2 sequence (O75521 39-394): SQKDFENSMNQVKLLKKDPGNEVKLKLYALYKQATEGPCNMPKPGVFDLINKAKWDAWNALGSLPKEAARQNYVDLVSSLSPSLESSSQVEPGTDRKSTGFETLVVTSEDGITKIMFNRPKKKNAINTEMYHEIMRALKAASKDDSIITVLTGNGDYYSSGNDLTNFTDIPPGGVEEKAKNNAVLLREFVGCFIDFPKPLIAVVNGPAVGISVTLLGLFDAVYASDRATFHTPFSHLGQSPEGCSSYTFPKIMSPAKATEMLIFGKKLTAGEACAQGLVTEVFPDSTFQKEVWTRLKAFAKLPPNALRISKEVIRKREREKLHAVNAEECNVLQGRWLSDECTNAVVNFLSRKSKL

For assay [5], the target named is cysteines in MDA-MB-231 and Ramos cells (Homo sapiens, UniProt Q9BXW7).
Assay [6] addresses T3, cysteines in MDA-MB-231 and Ramos cells (Homo sapiens, UniProt Q96RN5).
T3 sequence (Q96RN5 1-788): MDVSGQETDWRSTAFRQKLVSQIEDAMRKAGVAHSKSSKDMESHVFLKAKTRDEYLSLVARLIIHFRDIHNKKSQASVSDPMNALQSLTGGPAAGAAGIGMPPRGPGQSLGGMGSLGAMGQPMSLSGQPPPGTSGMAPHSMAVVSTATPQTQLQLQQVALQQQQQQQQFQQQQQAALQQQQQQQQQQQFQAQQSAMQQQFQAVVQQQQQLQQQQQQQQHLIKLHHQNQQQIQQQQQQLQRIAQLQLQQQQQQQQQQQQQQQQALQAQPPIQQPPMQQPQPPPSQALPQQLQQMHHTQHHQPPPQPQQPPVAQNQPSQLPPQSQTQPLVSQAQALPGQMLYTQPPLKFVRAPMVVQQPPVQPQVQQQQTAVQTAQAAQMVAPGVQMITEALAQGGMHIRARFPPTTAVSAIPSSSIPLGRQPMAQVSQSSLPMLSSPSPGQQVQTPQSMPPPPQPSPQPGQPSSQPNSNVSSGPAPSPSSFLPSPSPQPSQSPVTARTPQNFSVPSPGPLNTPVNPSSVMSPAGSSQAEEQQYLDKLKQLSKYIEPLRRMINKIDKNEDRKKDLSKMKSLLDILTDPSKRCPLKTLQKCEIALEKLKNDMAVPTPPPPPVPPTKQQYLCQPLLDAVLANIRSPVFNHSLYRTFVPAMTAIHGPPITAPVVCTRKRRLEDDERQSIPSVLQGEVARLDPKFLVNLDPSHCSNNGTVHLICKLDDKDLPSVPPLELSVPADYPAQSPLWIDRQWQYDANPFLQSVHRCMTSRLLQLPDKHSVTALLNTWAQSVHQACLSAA

Assay [7] concerns the target T4, cysteines in MDA-MB-231 and Ramos cells (Homo sapiens, UniProt Q96HE7).
T4 sequence (Q96HE7 24-468): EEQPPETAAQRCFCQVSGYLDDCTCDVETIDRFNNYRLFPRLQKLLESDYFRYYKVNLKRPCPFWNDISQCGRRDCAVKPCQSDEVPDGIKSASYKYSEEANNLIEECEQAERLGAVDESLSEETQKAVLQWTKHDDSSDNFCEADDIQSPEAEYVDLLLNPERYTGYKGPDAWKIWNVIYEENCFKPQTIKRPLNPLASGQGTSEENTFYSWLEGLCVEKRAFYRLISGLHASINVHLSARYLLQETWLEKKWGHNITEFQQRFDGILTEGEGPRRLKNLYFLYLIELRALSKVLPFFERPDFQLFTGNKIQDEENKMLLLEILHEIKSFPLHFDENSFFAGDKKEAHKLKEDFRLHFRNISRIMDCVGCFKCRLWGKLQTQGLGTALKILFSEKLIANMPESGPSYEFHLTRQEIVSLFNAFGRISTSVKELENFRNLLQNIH

The target in assay [8] is cysteines in MDA-MB-231 and Ramos cells (Homo sapiens, UniProt Q9BUH6). Particulars: 200 μM, insitu, 231.
cysteines in MDA-MB-231 and Ramos cells (Homo sapiens, UniProt Q9BUH6), sequence (Q9BUH6 whole entry): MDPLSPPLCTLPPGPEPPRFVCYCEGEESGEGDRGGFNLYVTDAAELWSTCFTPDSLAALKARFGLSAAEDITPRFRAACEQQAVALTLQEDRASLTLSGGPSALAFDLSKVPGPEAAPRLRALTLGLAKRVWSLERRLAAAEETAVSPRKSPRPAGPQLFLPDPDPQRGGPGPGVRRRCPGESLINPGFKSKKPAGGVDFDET

cysteines in MDA-MB-231 and Ramos cells (Homo sapiens, UniProt Q9ULV4), sequence (Q9ULV4 whole entry): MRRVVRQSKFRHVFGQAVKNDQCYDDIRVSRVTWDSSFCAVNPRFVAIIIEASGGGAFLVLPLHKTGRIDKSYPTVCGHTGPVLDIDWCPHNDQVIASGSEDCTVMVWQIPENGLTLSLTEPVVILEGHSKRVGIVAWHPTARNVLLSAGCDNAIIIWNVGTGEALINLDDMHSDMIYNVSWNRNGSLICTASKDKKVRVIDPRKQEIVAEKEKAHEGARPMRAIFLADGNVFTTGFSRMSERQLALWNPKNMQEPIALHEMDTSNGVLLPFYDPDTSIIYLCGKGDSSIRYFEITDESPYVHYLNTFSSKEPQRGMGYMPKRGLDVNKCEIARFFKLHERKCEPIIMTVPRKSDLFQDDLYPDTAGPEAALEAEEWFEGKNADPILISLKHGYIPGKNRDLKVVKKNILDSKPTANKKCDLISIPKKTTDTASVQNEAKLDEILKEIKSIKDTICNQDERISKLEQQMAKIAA
cysteines in MDA-MB-231 and Ramos cells (Homo sapiens, UniProt Q02252), sequence (Q02252 34-535): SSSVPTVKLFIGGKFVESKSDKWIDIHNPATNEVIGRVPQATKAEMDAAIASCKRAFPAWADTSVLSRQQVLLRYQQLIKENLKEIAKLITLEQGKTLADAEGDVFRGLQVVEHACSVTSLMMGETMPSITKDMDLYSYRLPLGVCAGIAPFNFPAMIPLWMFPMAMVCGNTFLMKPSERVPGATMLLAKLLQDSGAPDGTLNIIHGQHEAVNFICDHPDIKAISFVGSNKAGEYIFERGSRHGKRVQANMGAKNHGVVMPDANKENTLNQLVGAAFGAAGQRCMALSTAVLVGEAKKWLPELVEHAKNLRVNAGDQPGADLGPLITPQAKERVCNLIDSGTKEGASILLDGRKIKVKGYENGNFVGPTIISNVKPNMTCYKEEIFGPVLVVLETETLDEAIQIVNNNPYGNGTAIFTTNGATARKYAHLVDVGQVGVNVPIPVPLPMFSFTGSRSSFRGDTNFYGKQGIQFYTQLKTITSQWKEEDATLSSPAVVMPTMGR
cysteines in MDA-MB-231 and Ramos cells (Homo sapiens, UniProt Q9BXW7), sequence (Q9BXW7 24-423): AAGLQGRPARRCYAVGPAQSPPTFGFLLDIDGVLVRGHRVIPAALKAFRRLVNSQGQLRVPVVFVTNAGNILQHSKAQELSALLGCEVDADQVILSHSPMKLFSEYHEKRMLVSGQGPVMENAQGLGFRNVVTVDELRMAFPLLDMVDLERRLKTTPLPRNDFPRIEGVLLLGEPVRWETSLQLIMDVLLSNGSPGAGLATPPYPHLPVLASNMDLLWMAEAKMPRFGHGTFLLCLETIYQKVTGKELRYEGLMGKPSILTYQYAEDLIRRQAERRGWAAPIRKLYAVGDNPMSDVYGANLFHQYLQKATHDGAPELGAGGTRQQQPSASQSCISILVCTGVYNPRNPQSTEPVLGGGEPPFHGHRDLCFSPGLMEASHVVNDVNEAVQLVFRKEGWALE

Regarding `COc1ccc2c(c1)CCCN2C(=O)CCl` [compound 2], in assay [1] (200 μM, insitu, 231), the “isoTOP-ABPP reactivity Q02252_C317 ALDH6A1” value stood at 10.3. The “isoTOP-ABPP reactivity P52597_C267 HNRNPF” value in assay [2] (200 μM, insitu, 231) is 4.2. Besides, the “isoTOP-ABPP reactivity Q9ULV4_C420 CORO1C” value in assay [3] (200 μM, insitu, 231) is given as 3.0. Besides, in assay [4] (200 μM, insitu, 231), the “isoTOP-ABPP reactivity O75521_C312 ECI2” value is recorded as 0.7 and the “isoTOP-ABPP reactivity O75521_C380 ECI2” value is reported as 0.6. Besides, in assay [5] (200 μM, insitu, 231), the “isoTOP-ABPP reactivity Q9BXW7_C392 CECR5” value was found to be 3.6. For the same compound, in assay [6] (200 μM, insitu, 231), the “isoTOP-ABPP reactivity O96RN5_C618 MED15” value came out at 6.4. Further, in assay [7] (200 μM, insitu, 231), the “isoTOP-ABPP reactivity Q96HE7_C241 ERO1L” value stood at 2.4.
Take `COc1cc2c(cc1OC)CN(C(=O)CCl)CC2` [compound 8]: the “isoTOP-ABPP reactivity Q9BUH6_C180 C9orf142” value in assay [8] worked out at 6.6. For the same compound, the “isoTOP-ABPP reactivity Q9ULV4_C420 CORO1C” value in assay [3] (200 μM, insitu, 231) was 4.6. Moreover, in assay [4] (200 μM, insitu, 231), the “isoTOP-ABPP reactivity O75521_C312 ECI2” value is on record as 0.5 and the “isoTOP-ABPP reactivity O75521_C380 ECI2” value is 0.8. The “isoTOP-ABPP reactivity Q9BXW7_C392 CECR5” value in assay [5] (200 μM, insitu, 231) was determined as 3.2. Besides, the “isoTOP-ABPP reactivity O96RN5_C618 MED15” value in assay [6] (200 μM, insitu, 231) is listed as 20.0. In addition, the “isoTOP-ABPP reactivity Q96HE7_C241 ERO1L” value in assay [7] (200 μM, insitu, 231) was 3.7.
Regarding `O=C(CCl)N1CCC(Cc2ccccc2)CC1` [compound 9], the “isoTOP-ABPP reactivity P52597_C267 HNRNPF” value in assay [2] (200 μM, insitu, 231) turned out to be 3.2. The “isoTOP-ABPP reactivity Q9BUH6_C180 C9orf142” value in assay [8] is given as 2.8. Also, the “isoTOP-ABPP reactivity Q9ULV4_C420 CORO1C” value in assay [3] (200 μM, insitu, 231) is 2.0. In assay [4] (200 μM, insitu, 231), the “isoTOP-ABPP reactivity O75521_C312 ECI2” value came out at 0.5 and the “isoTOP-ABPP reactivity O75521_C380 ECI2” value is 0.7. The “isoTOP-ABPP reactivity Q9BXW7_C392 CECR5” value in assay [5] (200 μM, insitu, 231) worked out at 1.5. In assay [7] (200 μM, insitu, 231), the “isoTOP-ABPP reactivity Q96HE7_C37 ERO1L” value is on record as 20.0.
Regarding `Cn1cc(S(=O)(=O)N2CCOCC2)cc1C(=O)NC(=O)CCl` [compound 11], the “isoTOP-ABPP ratio Q02252_C317” value in assay [1] (100 μM in situ 231) came to 0.9. The “isoTOP-ABPP ratio P52597_C267” value in assay [2] (100 μM in situ 231) was found to be 1.0. Besides, the “isoTOP-ABPP ratio Q9ULV4_C420” value in assay [3] (100 μM in situ 231) is 0.9. For the same compound, the “isoTOP-ABPP ratio O75521_C380” value in assay [4] (100 μM in situ 231) is reported as 0.8. In assay [5] (100 μM in situ 231), the “isoTOP-ABPP ratio Q9BXW7_C392” value was determined as 1.1. In addition, in assay [6] (100 μM in situ 231), the “isoTOP-ABPP ratio Q96RN5_C618” value is reported as 1.0. Moreover, in assay [7] (100 μM in situ 231), the “isoTOP-ABPP ratio Q96HE7_C241” value turned out to be 1.8.
As to `O=C(CCl)NC12CC3CC(CC(C3)C1)C2` [compound 21], the “isoTOP-ABPP ratio Q02252_C317” value in assay [1] (200 μM, insitu, 231) amounted to 1.5. Further, the “isoTOP-ABPP ratio P52597_C267” value in assay [2] (200 μM, insitu, 231) is on record as 1.5. In assay [3] (200 μM, insitu, 231), the “isoTOP-ABPP ratio Q9ULV4_C420” value worked out at 1.3. Also, in assay [4] (200 μM, insitu, 231), the “isoTOP-ABPP ratio O75521_C312” value was 1.6 and the “isoTOP-ABPP ratio O75521_C380” value stood at 1.8. Further, the “isoTOP-ABPP ratio Q9BXW7_C392” value in assay [5] (200 μM, insitu, 231) is given as 1.6. For the same compound, in assay [6] (200 μM, insitu, 231), the “isoTOP-ABPP ratio Q96RN5_C618” value amounted to 1.0. Moreover, in assay [7] (200 μM, insitu, 231), the “isoTOP-ABPP ratio Q96HE7_C241” value was 1.6.
As for `CC(C)CCOCCNC(=O)CCl` [compound 27], in assay [1] (200 μM, insitu, 231), the “isoTOP-ABPP ratio Q02252_C317” value is reported as 2.0. Besides, the “isoTOP-ABPP ratio P52597_C267” value in assay [2] (200 μM, insitu, 231) was 1.0. Also, the “isoTOP-ABPP ratio Q9ULV4_C420” value in assay [3] (200 μM, insitu, 231) was 0.8. For the same compound, in assay [4] (200 μM, insitu, 231), the “isoTOP-ABPP ratio O75521_C312” value is recorded as 1.1 and the “isoTOP-ABPP ratio O75521_C380” value was 1.6. The “isoTOP-ABPP ratio Q9BXW7_C392” value in assay [5] (200 μM, insitu, 231) is given as 1.3. For the same compound, the “isoTOP-ABPP ratio Q96RN5_C618” value in assay [6] (200 μM, insitu, 231) turned out to be 0.8. The “isoTOP-ABPP ratio Q96HE7_C241” value in assay [7] (200 μM, insitu, 231) worked out at 0.9.
For `C=CC(=O)N(Cc1cccnc1)c1cc(C(F)(F)F)cc(C(F)(F)F)c1` [compound 31], the “isoTOP-ABPP ratio P52597_C267” value is on record as 1.2 in assay [2] (200 μM, insitu, 231) and 1.3 in assay [2] (200 μM, insitu, ramos). In assay [8], the “isoTOP-ABPP ratio Q9BUH6_C180” value worked out at 0.8. Further, the “isoTOP-ABPP ratio Q9ULV4_C420” value in assay [3] (200 μM, insitu, 231) came to 0.8; in assay [3] (200 μM, insitu, ramos), 1.1. Also, the “isoTOP-ABPP ratio Q96RN5_C618” value in assay [6] (200 μM, insitu, 231) was 0.9. Further, in assay [7] (200 μM, insitu, 231), the “isoTOP-ABPP ratio Q96HE7_C37” value was 0.6. Moreover, the “isoTOP-ABPP ratio Q96HE7_C241” value in assay [7] (200 μM, insitu, 231) turned out to be 0.7.
As to `O=C(CCl)Nc1cccc2ncccc12` [compound 51], the “isoTOP-ABPP ratio P52597_C267” value in assay [2] (200 μM, insitu, 231) came out at 1.3. The “isoTOP-ABPP ratio Q9ULV4_C420” value in assay [3] (200 μM, insitu, 231) amounted to 1.1. The “isoTOP-ABPP ratio O75521_C380” value in assay [4] (200 μM, insitu, 231) stood at 1.0. The “isoTOP-ABPP ratio Q9BXW7_C392” value in assay [5] (200 μM, insitu, 231) is 1.1. Moreover, the “isoTOP-ABPP ratio Q96RN5_C618” value in assay [6] (200 μM, insitu, 231) is reported as 2.1. Besides, in assay [7] (200 μM, insitu, 231), the “isoTOP-ABPP ratio Q96HE7_C241” value is 1.7.
